In patent US20260217697A1, “COMPOUNDS COMPRISING HETEROARYL RINGS AND COMPOSITIONS AND METHODS THEREOF” (lonGen Therapeutics Co., Ltd., priority 2022, published 2026):

Target: T1, hTRPV3 (Homo sapiens, UniProt Q8NET8)
T1 construct: The commercially available plasmid with the full-length cDNA of hTRPV3 (791 aa) (NM_001258205.2); host or cells: HEK293T
T1 sequence (Q8NET8 1-791 isoform Q8NET8-2): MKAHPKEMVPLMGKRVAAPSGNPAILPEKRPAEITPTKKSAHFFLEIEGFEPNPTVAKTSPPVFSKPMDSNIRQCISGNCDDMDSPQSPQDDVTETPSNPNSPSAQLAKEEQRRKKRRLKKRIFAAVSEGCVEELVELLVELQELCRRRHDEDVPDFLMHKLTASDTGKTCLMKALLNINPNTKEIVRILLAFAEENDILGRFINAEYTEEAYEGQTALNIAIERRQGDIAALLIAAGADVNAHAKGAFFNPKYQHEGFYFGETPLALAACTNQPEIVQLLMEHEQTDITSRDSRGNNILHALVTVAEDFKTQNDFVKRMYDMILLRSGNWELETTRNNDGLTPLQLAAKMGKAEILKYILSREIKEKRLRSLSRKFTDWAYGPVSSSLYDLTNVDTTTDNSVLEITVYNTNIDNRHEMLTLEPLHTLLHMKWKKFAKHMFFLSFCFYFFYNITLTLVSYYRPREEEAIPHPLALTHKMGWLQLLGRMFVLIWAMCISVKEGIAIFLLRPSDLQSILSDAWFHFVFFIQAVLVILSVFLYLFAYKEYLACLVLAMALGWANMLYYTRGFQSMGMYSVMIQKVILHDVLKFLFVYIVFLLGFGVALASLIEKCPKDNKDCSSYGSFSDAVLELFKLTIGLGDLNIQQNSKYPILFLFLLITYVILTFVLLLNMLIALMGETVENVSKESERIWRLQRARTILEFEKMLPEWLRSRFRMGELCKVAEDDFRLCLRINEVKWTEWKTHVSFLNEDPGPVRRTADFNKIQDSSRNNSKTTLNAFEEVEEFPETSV
Experiment: Whole-cell patch-clamp recording of hTRPV3 current in transfected HEK293T cells (2-APB induced)
Type: cell-based
Conditions: current induced by 300 μM 2-APB, compounds tested up to 10 μM, room temperature
Procedure: Various technologies can be utilized to assess TRPV3 activation in accordance with the present disclosure. For example, in some embodiments, compounds are assessed in in vitro patch clamp experiments. Certain useful procedures are described herein as examples.
In some embodiments, whole-cell patch-clamp recordings were used to detect the current through hTRPV3 channels in the HEK293T cell line transfected with hTRPV3 cDNA and evaluate the exact blocking effect of compounds on hTRPV3. In some embodiments, a perfusion system was adopted to control the extracellular solution, including the addition of the agonist and different antagonists.
HEK293T cells were cultured in a Dulbecco's modified Eagle's medium containing 10% fetal bovine serum (Thermo Scientific) and 1% penicillin/streptomycin (Thermo Scientific) at 37° C. with 5% CO2. The commercially available plasmid with the full-length cDNA of hTRPV3 (791 aa) (NM_001258205.2) was purchased from OriGene Technologies. The transfection of hTRPV3 plasmids was conducted using Lipofectamine™ 3000 following the manufacturer's instructions (Invitrogen).
Whole-cell patch-clamp experiments were performed 18 h post-transfection, using a MultiClamp 700B amplifier driven by pClamp 11 software (Molecular Devices). In order to achieve good single-cell physical separation, HEK293T cells with hTRPV3 expression were digested and then re-plated at low density on glass coverslips. Electrodes were pulled from borosilicate glass with a P-97 micropipette puller (Sutter Instruments) and those with resistances of 3-5 MΩ are used for experiments. In some embodiments, an Ag—AgCl wire was used as a reference electrode and signals are filtered using a 2.9 kHz low-pass Bessel filter. Membrane potential was held at 0 mV. For recording of agonist-induced activation and inhibition by different test compounds, currents were elicited by a protocol consisting of a 400-ms step to +80 mV, followed by a 400-ms step to −80 mV at 2-s intervals. both pipette and bath solutions contained 130 mM NaCl, 0.3 mM EDTA, and 3 mM HEPES (buffered to pH 7.4 with NaOH). All recordings were made at room temperature.
All patch-clamp recordings were analyzed using the Clampfit software and GraphPad Prism 6.0 software. Specifically, data are analyzed by calculating the degree of current amplitude after the test compound addition compared with the unblocked agonist-induced current amplitude. The resulting blocking percentage at each concentration was used to make a concentration-response analysis and fitted to the Hill equation: blocking percentage=minimum blocking percentage+ (maximum blocking percentage-minimum blocking percentage)/(1+10^(Hill slope* […])). The minimum blocking percentage is 0% and maximum blocking percentage is 100%, while the Hill slope and the IC50 were determined as the curve fitting routine. Compounds of interest were tested against hTRPV3 at concentrations up to 10 μM, and certain data was used to estimate IC50 as described herein.

SMILES	IC50 [nM]
CCC1(CC)Oc2cc(C(F)(F)F)ccc2-c2nc(NC(=O)c3c(O)ncnc3OC)sc21 [compound 121, N-(4,4-diethyl-7-(trifluoromethyl)-4H-chromeno[4,3-d]thiazol-2-yl)-4-hydroxy-6-methoxypyrimidine-5-carboxamide]	≥ 10000
CCC1(CC)Oc2cc(C(F)(F)F)ccc2-c2nc(NC(=O)c3nccnc3OC)sc21 [compound 96, N-(4,4-diethyl-7-(trifluoromethyl)-4H-chromeno[4,3-d]thiazol-2-yl)-3-methoxypyrazine-2-carboxamide]	1000 to 10000
COc1ncnc(OC)c1C(=O)Nc1nc2c(s1)C1(CCN(C3CC3)CC1)Oc1cc(C(F)(F)F)ccc1-2 [compound 154]	100 to 1000
COc1ncnc(OC)c1C(=O)Nc1nc2c(s1)C1(CCC(C(=O)O)CC1)Oc1cc(C(F)(F)F)ccc1-2 (centres unmarked) [compound 101, 2-(4,6-dimethoxypyrimidine-5-carboxamido)-7-(trifluoromethyl)spiro[chromeno[4,3-d]thiazole-4,1′-cyclohexane]-4′-carboxylic acid]	≥ 10000
CCC1(CC)Oc2cc(C(F)(F)F)ccc2-c2nc(NC(=O)c3c(OCC(F)(F)F)ncnc3OCC(F)(F)F)sc21 [compound 48, N-(4,4-diethyl-7-(trifluoromethyl)-4H-chromeno[4,3-d]thiazol-2-yl)-4,6-bis(2,2,2-trifluoroethoxy)pyrimidine-5-carboxamide]	≥ 10000
COc1ncnc(OC)c1C(=O)Nc1nc2c(s1)CSc1ccc(Cl)cc1-2 [compound 5, N-(8-chloro-4H-thiochromeno[4,3-d]thiazol-2-yl)-4,6-dimethoxypyrimidine-5-carboxamide]	≥ 10000
COc1ncnc(OC)c1C(=O)Nc1nc2c(s1)C1(CNC1)Oc1cc(C(F)(F)F)ccc1-2 [compound 67, 4,6-dimethoxy-N-(7′-(trifluoromethyl)spiro[azetidine-3,4′-chromeno[4,3-d]thiazol]-2′-yl)pyrimidine-5-carboxamide]	≥ 10000
CCC1(CC)Oc2cc(C(F)(F)F)ccc2-c2nc(N(C)C(=O)c3c(OC)ncnc3OC)sc21 [compound 53]	≥ 10000
COc1ncnc(OC)c1C(=O)Nc1nc2c(s1)C1(CCN(S(C)(=O)=O)CC1)Oc1cc(C(F)(F)F)ccc1-2 [compound 73, 4,6-dimethoxy-N-(1′-(methylsulfonyl)-7-(trifluoromethyl)spiro[chromeno[4,3-d]thiazole-4,4′-piperidin]-2-yl)pyrimidine-5-carboxamide]	1000 to 10000
COc1ncnc(OC)c1C(=O)Nc1nc2c(s1)C1(CN(C(=O)c3ccccc3)C1)Oc1cc(C(F)(F)F)ccc1-2 [compound 75, N-(1-benzoyl-7′-(trifluoromethyl)spiro[azetidine-3,4′-chromeno[4,3-d]thiazol]-2′-yl)-4,6-dimethoxypyrimidine-5-carboxamide]	100 to 1000
COc1ncnc(OC)c1C(=O)Nc1nc2c(s1)Cc1cc(C(F)(F)F)ccc1-2 [compound 84, 4,6-dimethoxy-N-(6-(trifluoromethyl)-8H-indeno[1,2-d]thiazol-2-yl)pyrimidine-5-carboxamide]	1000 to 10000
COc1ncnc(OC)c1C(=O)Nc1nc2c(s1)COc1cc(OC(=O)C(C)(C)C)ccc1-2 [compound 14, 2-(4,6-dimethoxypyrimidine-5-carboxamido)-4H-chromeno[4,3-d]thiazol-7-yl pivalate]	1000 to 10000
COc1ncnc(OC)c1C(=O)Nc1nc2c(s1)C1(CCCC(NC(=O)OCc3ccccc3)C1)Oc1cc(C(F)(F)F)ccc1-2 (centres unmarked) [compound 39, benzyl(2-(4,6-dimethoxypyrimidine-5-carboxamido)-7-(trifluoromethyl)spiro[chromeno[4,3-d]thiazole-4,1′-cyclohexan]-3′-yl)carbamate]	100 to 1000
COc1ncnc(OC)c1C(=O)Nc1nc2c(s1)C1(CCC(C)(C)CC1)Oc1cc(C(F)(F)F)ccc1-2 [compound 34, N-(4′,4′-dimethyl-7-(trifluoromethyl)spiro[chromeno[4,3-d]thiazole-4,1′-cyclohexan]-2-yl)-4,6-dimethoxypyrimidine-5-carboxamide]	100 to 1000

Further lines, results first:

IC50 [nM]	SMILES
100 to 1000	COc1ncnc(OC)c1C(=O)Nc1nc2c(s1)C1(CCOCC1)Oc1cc(C(F)(F)F)ccc1-2 [compound 59, 4,6-dimethoxy-N-(7-(trifluoromethyl)-2′,3′,5′,6′-tetrahydrospiro[chromeno[4,3-d]thiazole-4,4′-pyran]-2-yl)pyrimidine-5-carboxamide]
100 to 1000	COCC1(COC)Oc2cc(C(F)(F)F)ccc2-c2nc(NC(=O)c3c(OC)ncnc3OC)sc21 [compound 66, N-(4,4-bis(methoxymethyl)-7-(trifluoromethyl)-4H-chromeno[4,3-d]thiazol-2-yl)-4,6-dimethoxypyrimidine-5-carboxamide]
< 100	COc1ncnc(OC)c1C(=O)Nc1nc2c(s1)C(CF)(CF)Oc1cc(C(F)(F)F)ccc1-2 [compound 100]
100 to 1000	C=CCCOc1ncnc(OC)c1C(=O)Nc1nc2c(s1)C1(CCCCC1)Oc1cc(C(F)(F)F)ccc1-2 [compound 43, 4-(but-3-en-1-yloxy)-6-methoxy-N-(7-(trifluoromethyl)spiro[chromeno[4,3-d]thiazole-4,1′-cyclohexan]-2-yl)pyrimidine-5-carboxamide]
100 to 1000	COc1ncnc(OC)c1C(=O)Nc1nc2c(s1)C1(CCC(c3ccc(C)cc3)CC1)Oc1cc(C(F)(F)F)ccc1-2 (centres unmarked) [compound 36, 4,6-dimethoxy-N-(4′-(p-tolyl)-7-(trifluoromethyl)spiro[chromeno[4,3-d]thiazole-4,1′-cyclohexan]-2-yl)pyrimidine-5-carboxamide]
100 to 1000	CCC1(CC)Oc2cc(C(F)(F)F)ccc2-c2nc(NC(=O)c3c(Cl)ncnc3OC)sc21 [compound 112, 4-chloro-N-(4,4-diethyl-7-(trifluoromethyl)-4H-chromeno[4,3-d]thiazol-2-yl)-6-methoxypyrimidine-5-carboxamide]
100 to 1000	COc1ncnc(OC)c1C(=O)Nc1nc2c(s1)C1(CC(NC(=O)OC(C)(C)C)C1)Oc1cc(C(F)(F)F)ccc1-2 (centres unmarked) [compound 131, tert-butyl(2-(4,6-dimethoxypyrimidine-5-carboxamido)-7-(trifluoromethyl)spiro[chromeno[4,3-d]thiazole-4,1′-cyclobutan]-3′-yl)carbamate]
100 to 1000	C=CCCC1Oc2cc(C(F)(F)F)ccc2-c2nc(NC(=O)c3c(OC)ncnc3OC)sc21 (centres unmarked) [compound 28, N-(4-(but-3-en-1-yl)-7-(trifluoromethyl)-4H-chromeno[4,3-d]thiazol-2-yl)-4,6-dimethoxypyrimidine-5-carboxamide]
100 to 1000	COc1ncnc(OC)c1C(=O)Nc1nc2c(s1)C1(CN(CCO)C1)Oc1cc(C(F)(F)F)ccc1-2 [compound 166, N-(1-(2-hydroxyethyl)-7′-(trifluoromethyl)spiro[azetidine-3,4′-chromeno[4,3-d]thiazol]-2′-yl)-4,6-dimethoxypyrimidine-5-carboxamide]
